Measured values as given in patent US20240343704A1, “HALO-SUBSTITUTED AMINO PYRIDINE COMPOUNDS AS INHIBITORS OF THE HAEMATOPOIETIC PROGENITOR KINASE 1 (HPK1)” (priority 2021, published 2024).

How the values were obtained:
[1] = target: Lck (h) (Homo sapiens, UniProt P06239); experiment: Lck Human  Kinase Enzymatic Radiometric Assay; type: biochemical; conditions: for IC50: read-out: Lck IC50 nM Range*; for LcK IC50/HPK IC50 selectivity: ratio of Lck IC50 to HPK1 IC50
Method: Lck (h) is incubated with 50 mM Tris pH 7.5, 0.1 mM EGTA, 0.1 mM Na3VO4, 250 uM KVEKIGEGTYGVVYK (Cdc2 peptide), 10 mM MgAcetate and [gamma-33P]-ATP (specific activity and concentration as required). The reaction is initiated by the addition of the Mg/ATP mix. After incubation for 40 minutes at RT, the reaction is stopped by the addition of phosphoric acid to a concentration of 0.5%. 10 uL of the reaction is then spotted onto a P30 filtermat and washed four times for 4 minutes in 0.425% phosphoric acid and once in methanol prior to drying and scintillation counting. For more details on the kinase assay procedures see: Gao, Y. et. al.; Biochem J., 451 (2): 313-328, 2013.

[2] = target: T1, Recombinant (1-346) HPK1 (h) (Homo sapiens, UniProt Q92918); experiment: HPK1 Human STE Kinase Enzymatic Radiometric Assay; type: biochemical; conditions: read-out: HPK1 IC50 nM Range*
T1 construct: Recombinant (1-346) HPK1 (h) is incubated with 8 mM MOPS pH 7.0
T1 sequence (Q92918 1-346): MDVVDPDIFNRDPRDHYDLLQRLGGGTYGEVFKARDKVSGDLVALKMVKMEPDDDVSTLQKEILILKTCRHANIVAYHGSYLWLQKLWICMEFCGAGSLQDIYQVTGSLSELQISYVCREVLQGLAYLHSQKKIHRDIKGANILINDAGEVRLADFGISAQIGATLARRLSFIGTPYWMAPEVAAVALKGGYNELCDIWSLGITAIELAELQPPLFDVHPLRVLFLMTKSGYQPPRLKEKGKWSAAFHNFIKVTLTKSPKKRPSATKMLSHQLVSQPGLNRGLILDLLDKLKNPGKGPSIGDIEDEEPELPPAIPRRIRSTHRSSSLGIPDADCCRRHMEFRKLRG
Method: A stock solution of 10 mM of test compound is prepared in DMSO. The compound plate was prepared by 3-fold and 9-point serial dilutions. […] The reaction is initiated by The addition of the Mg/ATP mix. After incubation for 40 minutes at RT, the reaction is stopped by the addition of phosphoric acid to a concentration of 0.5%.

Chain of Lck (h) (P06239 whole entry): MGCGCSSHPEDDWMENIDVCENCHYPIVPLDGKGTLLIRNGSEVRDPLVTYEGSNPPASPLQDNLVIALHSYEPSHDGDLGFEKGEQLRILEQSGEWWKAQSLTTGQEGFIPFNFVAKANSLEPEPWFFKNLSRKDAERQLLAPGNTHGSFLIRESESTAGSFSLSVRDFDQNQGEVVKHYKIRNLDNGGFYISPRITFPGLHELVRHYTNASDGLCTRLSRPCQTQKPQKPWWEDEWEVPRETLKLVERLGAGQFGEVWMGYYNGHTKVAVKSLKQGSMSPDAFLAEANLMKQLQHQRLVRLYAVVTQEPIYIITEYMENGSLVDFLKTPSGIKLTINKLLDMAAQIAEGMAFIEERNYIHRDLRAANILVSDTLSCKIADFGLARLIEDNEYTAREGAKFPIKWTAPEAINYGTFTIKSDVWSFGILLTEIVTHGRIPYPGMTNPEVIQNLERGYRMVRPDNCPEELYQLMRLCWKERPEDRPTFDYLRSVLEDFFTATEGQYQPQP

Row | Compound | IC50 [1] [nM] | IC50 [2] [nM] | LcK IC50/HPK IC50 selectivity [1]
1 | CC(C)[C@@H]1CN(c2ccc(-c3cc(-c4ccc5c(c4)CCNC5=O)c(N)nc3F)cc2)CCO1 [I-9, (R)-6-(2-amino-6-fluoro-5-(4-(2-isopropylmorpholino)phenyl)pyridin-3-yl)-3,4-dihydroisoquinolin-1(2H)-one] | > 1000 | 0.1 to 10 | 
2 | CC(C)[C@H]1CN(c2ccc(-c3cc(-c4ccc5c(c4)CCNC5=O)c(N)nc3F)cc2)CCO1 [I-10, (S)-6-(2-amino-6-fluoro-5-(4-(2-isopropylmorpholino)phenyl)pyridin-3-yl)-3,4-dihydroisoquinolin-1(2H)-one] | > 1000 | 11 to 100 | 
3 | CC(C)[C@@H]1CN(c2ccc(-c3cc(-c4ccc5c(c4)CCNC5=O)c(N)nc3F)c(F)c2)CCO1 [I-11, (R)-6-(2-amino-6-fluoro-5-(2-fluoro-4-(2-isopropylmorpholino)phenyl)pyridin-3-yl)-3,4-dihydroisoquinolin-1(2H)-one] | > 1000 | 0.1 to 10 | 
4 | CC(C)[C@H]1CN(c2ccc(-c3cc(-c4ccc5c(c4)CCNC5=O)c(N)nc3F)c(F)c2)CCO1 [I-12, (S)-6-(2-amino-6-fluoro-5-(2-fluoro-4-(2-isopropylmorpholino)phenyl)pyridin-3-yl)-3,4-dihydroisoquinolin-1(2H)-one] | > 1000 | 11 to 100 | 
5 | CN1[C@@H]2CC[C@H]1CN(c1ccc(-c3cc(-c4ccc5c(c4)CCNC5=O)c(N)nc3F)cc1)C2 [I-13, 6-(2-amino-6-fluoro-5-(4-((1R,5S)-8-methyl-3,8-diazabicyclo[3.2.1]octan-3-yl)phenyl)pyridin-3-yl)-3,4-dihydroisoquinolin-1(2H)-one] | 101 to 1000 | 0.1 to 10 | 
6 | CN1C[C@H]2C[C@@]2(c2ccc(-c3cc(-c4ccc5c(c4)CCNC5=O)c(N)nc3F)cc2)C1 [I-14, 6-(2-amino-6-fluoro-5-(4-((1R,5S)-3-methyl-3-azabicyclo[3.1.0]hexan-1-yl)phenyl)pyridin-3-yl)-3,4-dihydroisoquinolin-1(2H)-one] | > 1000 | 0.1 to 10 | 
7 | CC(C)S(=O)(=O)c1ccc(-c2cc(-c3ccc4c(c3)CCNC4=O)c(N)nc2F)cc1 [I-15, 6-(2-amino-6-fluoro-5-(4-(isopropylsulfonyl)phenyl)pyridin-3-yl)-3,4-dihydroisoquinolin-1(2H)-one] | > 1000 | 0.1 to 10 | 
8 | CN1C[C@@H]2C[C@H]1CN2c1ccc(-c2cc(-c3ccc4c(c3)CCNC4=O)c(N)nc2F)cc1 [I-18, 6-(2-amino-6-fluoro-5-(4-(5-methyl-2,5-diazabicyclo[2.2.1]heptan-2-yl)phenyl)pyridin-3-yl)-3,4-dihydroisoquinolin-1(2H)-one] | > 1000 | 0.1 to 10 | 
9 | Nc1nc(F)c(-c2ccc(N3CCN(CCF)CC3)cc2)cc1-c1ccc2c(c1)CCNC2=O [I-20, 6-(2-amino-6-fluoro-5-(4-(4-(2-fluoroethyl)piperazin-1-yl)phenyl)pyridin-3-yl)-3,4-dihydroisoquinolin-1(2H)-one] | > 1000 | 0.1 to 10 | 
10 | Nc1nc(F)c(-c2ccc(N3CCN(CC(F)F)CC3)cc2)cc1-c1ccc2c(c1)CCNC2=O [I-21, 6-(2-amino-5-(4-(4-(2,2-difluoroethyl)piperazin-1-yl)phenyl)-6-fluoropyridin-3-yl)-3,4-dihydroisoquinolin-1(2H)-one] | > 1000 | 0.1 to 10 | 
11 | Nc1nc(F)c(-c2ccc(OC3CCNCC3)cc2)cc1-c1ccc2c(c1)CCNC2=O [I-22, 6-(2-amino-6-fluoro-5-(4-(piperidin-4-yloxy)phenyl)pyridin-3-yl)-3,4-dihydroisoquinolin-1(2H)-one] | > 1000 | 0.1 to 10 | 
12 | Nc1nc(F)c(-c2ccc(C3CCNCC3)cc2)cc1-c1cc2c(cc1F)C(=O)NCC2 [drawing 2693] |  |  | 704
13 | Nc1ncc(-c2ccc(C3CCNCC3)cc2)cc1-c1ccc2c(c1)CCNC2=O [reference compound] |  |  | 45
14 | Nc1ncc(-c2cnn(C3CCOCC3)c2)cc1-c1ccc2c(c1)CCNC2=O [reference compound] |  |  | 0.2
15 | Nc1ncc(-c2ccc(N3C[C@H]4COC[C@H]4C3)cc2)cc1-c1ccc2c(c1)CCNC2=O [reference compound] |  |  | 51
16 | Nc1ncc(-c2ccc(N3C[C@@H]4CCO[C@@H]4C3)cc2)cc1-c1ccc2c(c1)CCNC2=O [reference compound] |  |  | 34
17 | Nc1ncc(-c2ccc(N3CCNCC3)c(C(F)(F)F)c2)cc1-c1ccc2c(c1)CCNC2=O [reference compound] |  |  | 145
18 | Nc1ncc(-c2ccc3c(c2)OCCCO3)cc1-c1ccc2c(c1)CCNC2=O [reference compound] |  |  | 485
19 | Nc1ncc(-c2ccc(N3CCN4CCCC4C3)cc2)cc1-c1ccc2c(c1)CCNC2=O (centres unmarked) [reference compound] |  |  | 20
20 | Nc1ncc(-c2ccc(N3CCCN4CCCC4C3)cc2)cc1-c1ccc2c(c1)CCNC2=O (centres unmarked) [reference compound] |  |  | 92
21 | Nc1ncc(-c2ccc(C3CCNCC3)cc2)cc1-c1cc2c(cc1F)C(=O)NCC2 [reference compound] |  |  | 27

Other lines, results leading:

Row | IC50 [1] [nM] | IC50 [2] [nM] | LcK IC50/HPK IC50 selectivity [1] | Compound
22 | 101 to 1000 | 11 to 100 |  | CN1CCN(c2ccc(-c3cnc(N)c(-c4ccc5c(c4)CCNC5=O)c3F)cc2)CC1 [I-1, 6-(2-amino-4-fluoro-5-(4-(4-methylpiperazin-1-yl)phenyl)pyridin-3-yl)-3,4-dihydroisoquinolin-1(2H)-one]
23 | > 1000 | 11 to 100 |  | Nc1ncc(-c2ccc(N3CCOCC3)cc2)c(F)c1-c1ccc2c(c1)CCNC2=O [I-2, 6-(2-amino-4-fluoro-5-(4-morpholinophenyl)pyridin-3-yl)-3,4-dihydroisoquinolin-1(2H)-one]
24 | > 1000 | 11 to 100 |  | CC(C)S(=O)(=O)c1ccc(-c2cnc(N)c(-c3ccc4c(c3)CCNC4=O)c2F)cc1 [I-3, 6-(2-amino-4-fluoro-5-(4-(isopropylsulfonyl)phenyl)pyridin-3-yl)-3,4-dihydroisoquinolin-1(2H)-one]
25 | > 1000 | 11 to 100 |  | CC(C)[C@@H]1CN(c2ccc(-c3cnc(N)c(-c4ccc5c(c4)CCNC5=O)c3F)cc2)CCO1 [I-4, (R)-6-(2-amino-4-fluoro-5-(4-(2-isopropylmorpholino)phenyl)pyridin-3-yl)-3,4-dihydroisoquinolin-1(2H)-one]
26 | > 1000 | 11 to 100 |  | CC(C)[C@H]1CN(c2ccc(-c3cnc(N)c(-c4ccc5c(c4)CCNC5=O)c3F)cc2)CCO1 [I-5, (S)-6-(2-amino-4-fluoro-5-(4-(2-isopropylmorpholino)phenyl)pyridin-3-yl)-3,4-dihydroisoquinolin-1(2H)-one]
27 | > 1000 | 11 to 100 |  | CC(C)[C@@H]1CN(c2ccc(-c3cnc(N)c(-c4ccc5c(c4)CCNC5=O)c3F)c(F)c2)CCO1 [I-6, (R)-6-(2-amino-4-fluoro-5-(2-fluoro-4-(2-isopropylmorpholino)phenyl)pyridin-3-yl)-3,4-dihydroisoquinolin-1(2H)-one]
28 | > 1000 | 101 to 1000 |  | CC(C)[C@H]1CN(c2ccc(-c3cnc(N)c(-c4ccc5c(c4)CCNC5=O)c3F)c(F)c2)CCO1 [I-7, (S)-6-(2-amino-4-fluoro-5-(2-fluoro-4-(2-isopropylmorpholino)phenyl)pyridin-3-yl)-3,4-dihydroisoquinolin-1(2H)-one]
29 | > 1000 | 0.1 to 10 |  | CN1CCN(c2ccc(-c3cc(-c4ccc5c(c4)CCNC5=O)c(N)nc3F)cc2)CC1 [I-8, 6-(2-amino-6-fluoro-5-(4-(4-methylpiperazin-1-yl)phenyl)pyridin-3-yl)-3,4-dihydroisoquinolin-1(2H)-one]
30 | > 1000 | 0.1 to 10 |  | Nc1nc(F)c(-c2ccc(N3CCNCC3)cc2)cc1-c1ccc2c(c1)CCNC2=O [I-17, 6-(2-amino-6-fluoro-5-(4-(piperazin-1-yl)phenyl)pyridin-3-yl)-3,4-dihydroisoquinolin-1(2H)-one]
31 | > 1000 | 0.1 to 10 |  | Nc1nc(F)c(-c2ccc(N3CCOCC3)cc2)cc1-c1cc2c(cc1F)C(=O)NCC2 [I-19, 6-(2-amino-6-fluoro-5-(4-morpholinophenyl)pyridin-3-yl)-7-fluoro-3,4-dihydroisoquinolin-1(2H)-one]
32 | > 1000 | 0.1 to 10 |  | Nc1nc(F)c(-c2ccc(N3CCN4CCOCC4C3)cc2)cc1-c1ccc2c(c1)CCNC2=O (centres unmarked) [I-23, 6-(2-amino-6-fluoro-5-(4-(hexahydropyrazino[2,1-c][1,4]oxazin-8(1H)-yl)phenyl)pyridin-3-yl)-3,4-dihydroisoquinolin-1(2H)-one]
33 |  |  | 69 | Nc1ncc(-c2ccc(N3CCCC3)cc2)cc1-c1ccc2c(c1)CCNC2=O [reference compound]
34 |  |  | 79 | Nc1ncc(-c2ccc(N3CCCCC3)cc2)cc1-c1ccc2c(c1)CCNC2=O [reference compound]
